# Reference: patent US6492395B1, “Topical formulation of alkyl-, phenyl-pyridone” (Mepha AG, priority 2001, dated 2002)
# Assay: Stability test, 6 months storage under standard storage conditions
# Type: physicochemical
# Description: Stability testing was carried out as above.
smiles,measurement,value
Cc1ccc(=O)n(-c2ccccc2)c1 [5-methyl-1-phenyl-2-(1H)-pyridone],effect on physical stability of emulsions and other colloidal systems,emulsion destabiliser
